Each structure is given as a SMILES string.

What all share (type): cell-based
One assay concerns the target T1, human TLR9 (Homo sapiens, UniProt Q9NR96).
T1 construct: host or cells: HEK-Blue cells
T1 sequence (Q9NR96 26-1032): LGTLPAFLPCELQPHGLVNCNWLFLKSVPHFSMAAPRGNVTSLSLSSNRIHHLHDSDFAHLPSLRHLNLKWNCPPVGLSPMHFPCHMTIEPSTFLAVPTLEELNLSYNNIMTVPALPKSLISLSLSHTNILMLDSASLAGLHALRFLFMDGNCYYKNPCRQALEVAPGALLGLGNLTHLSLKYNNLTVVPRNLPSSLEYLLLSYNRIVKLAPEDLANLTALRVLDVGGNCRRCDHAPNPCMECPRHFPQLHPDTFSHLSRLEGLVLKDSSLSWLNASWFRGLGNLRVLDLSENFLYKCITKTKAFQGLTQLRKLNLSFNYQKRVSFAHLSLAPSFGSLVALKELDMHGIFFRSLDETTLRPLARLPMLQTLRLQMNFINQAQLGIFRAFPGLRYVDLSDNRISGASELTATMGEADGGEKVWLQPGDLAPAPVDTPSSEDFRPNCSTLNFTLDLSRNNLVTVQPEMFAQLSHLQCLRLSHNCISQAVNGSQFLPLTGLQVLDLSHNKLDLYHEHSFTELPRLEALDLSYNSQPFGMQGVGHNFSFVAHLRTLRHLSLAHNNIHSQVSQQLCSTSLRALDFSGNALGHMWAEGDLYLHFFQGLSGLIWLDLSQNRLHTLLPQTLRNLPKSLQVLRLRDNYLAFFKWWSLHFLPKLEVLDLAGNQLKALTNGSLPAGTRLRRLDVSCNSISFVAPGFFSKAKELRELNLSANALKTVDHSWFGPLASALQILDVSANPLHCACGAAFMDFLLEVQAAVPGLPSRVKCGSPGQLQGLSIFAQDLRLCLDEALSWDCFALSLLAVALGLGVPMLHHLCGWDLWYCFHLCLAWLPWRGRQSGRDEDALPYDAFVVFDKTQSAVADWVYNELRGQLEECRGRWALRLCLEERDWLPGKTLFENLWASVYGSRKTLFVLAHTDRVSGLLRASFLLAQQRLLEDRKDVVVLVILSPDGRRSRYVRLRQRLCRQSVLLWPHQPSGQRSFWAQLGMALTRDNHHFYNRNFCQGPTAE
The assay is described as follows: TLR9 inhibition reporter assay (HEK-Blue cells, SEAP reporter, ODN2006 stimulation). Particulars: HEK-Blue cells overexpressing human TLR9, SEAP reporter, ODN2006 5 nM. An outline of the steps:
(§1)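 Ligand levels differed by receptor: TLR7 got gardiquimod at 7.5 μM, TLR8 got R848 at 15.9 μM, and TLR9 got ODN2006 at 5 nM, each added after a 30-min room-temperature compound exposure. Incubation lasted 22 h at 37° C before colorimetric SEAP detection.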
A general note: In a reporter assay the amount or activity of a reporter protein is the signal.

In a further assay the target is T2, human TLR7 (Homo sapiens, UniProt Q9NYK1).
T2 construct: host or cells: HEK-Blue cells
T2 sequence (Q9NYK1 27-1049): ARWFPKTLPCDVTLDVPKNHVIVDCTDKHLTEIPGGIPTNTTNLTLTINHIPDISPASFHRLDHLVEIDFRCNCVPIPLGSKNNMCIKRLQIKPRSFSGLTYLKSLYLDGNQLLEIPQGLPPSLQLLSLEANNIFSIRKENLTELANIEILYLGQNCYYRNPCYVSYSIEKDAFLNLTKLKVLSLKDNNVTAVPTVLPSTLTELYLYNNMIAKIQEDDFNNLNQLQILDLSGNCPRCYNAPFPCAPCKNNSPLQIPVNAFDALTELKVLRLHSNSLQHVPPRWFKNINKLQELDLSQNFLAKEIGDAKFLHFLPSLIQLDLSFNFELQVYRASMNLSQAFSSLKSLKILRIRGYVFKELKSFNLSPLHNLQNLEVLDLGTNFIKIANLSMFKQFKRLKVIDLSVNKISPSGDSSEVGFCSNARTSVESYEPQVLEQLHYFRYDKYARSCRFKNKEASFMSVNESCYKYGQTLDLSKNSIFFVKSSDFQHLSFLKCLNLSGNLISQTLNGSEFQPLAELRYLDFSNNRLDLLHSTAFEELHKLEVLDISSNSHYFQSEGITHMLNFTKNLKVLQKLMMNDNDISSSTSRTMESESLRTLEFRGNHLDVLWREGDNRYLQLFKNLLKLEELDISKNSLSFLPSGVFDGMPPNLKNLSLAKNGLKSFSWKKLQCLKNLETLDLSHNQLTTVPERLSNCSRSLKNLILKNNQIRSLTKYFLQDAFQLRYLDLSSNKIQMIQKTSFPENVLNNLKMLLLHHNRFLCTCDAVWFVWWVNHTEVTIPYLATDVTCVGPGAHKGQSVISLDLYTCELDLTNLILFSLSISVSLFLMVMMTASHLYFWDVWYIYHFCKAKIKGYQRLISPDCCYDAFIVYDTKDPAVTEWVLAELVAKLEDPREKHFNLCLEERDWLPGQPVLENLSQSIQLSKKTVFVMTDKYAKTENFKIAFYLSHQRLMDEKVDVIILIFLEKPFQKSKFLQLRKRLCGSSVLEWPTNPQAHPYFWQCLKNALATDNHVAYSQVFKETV
The assay can be described thus: TLR7 inhibition reporter assay (HEK-Blue cells, SEAP reporter, gardiquimod stimulation). To be noted: HEK-Blue cells overexpressing human TLR7, SEAP reporter, gardiquimod 7.5 μM. An outline of the steps: as §1

For the next assay, the target named is T3, human TLR8 (Homo sapiens, UniProt Q9NR97).
T3 construct: host or cells: HEK-Blue cells
T3 sequence (Q9NR97 27-1041): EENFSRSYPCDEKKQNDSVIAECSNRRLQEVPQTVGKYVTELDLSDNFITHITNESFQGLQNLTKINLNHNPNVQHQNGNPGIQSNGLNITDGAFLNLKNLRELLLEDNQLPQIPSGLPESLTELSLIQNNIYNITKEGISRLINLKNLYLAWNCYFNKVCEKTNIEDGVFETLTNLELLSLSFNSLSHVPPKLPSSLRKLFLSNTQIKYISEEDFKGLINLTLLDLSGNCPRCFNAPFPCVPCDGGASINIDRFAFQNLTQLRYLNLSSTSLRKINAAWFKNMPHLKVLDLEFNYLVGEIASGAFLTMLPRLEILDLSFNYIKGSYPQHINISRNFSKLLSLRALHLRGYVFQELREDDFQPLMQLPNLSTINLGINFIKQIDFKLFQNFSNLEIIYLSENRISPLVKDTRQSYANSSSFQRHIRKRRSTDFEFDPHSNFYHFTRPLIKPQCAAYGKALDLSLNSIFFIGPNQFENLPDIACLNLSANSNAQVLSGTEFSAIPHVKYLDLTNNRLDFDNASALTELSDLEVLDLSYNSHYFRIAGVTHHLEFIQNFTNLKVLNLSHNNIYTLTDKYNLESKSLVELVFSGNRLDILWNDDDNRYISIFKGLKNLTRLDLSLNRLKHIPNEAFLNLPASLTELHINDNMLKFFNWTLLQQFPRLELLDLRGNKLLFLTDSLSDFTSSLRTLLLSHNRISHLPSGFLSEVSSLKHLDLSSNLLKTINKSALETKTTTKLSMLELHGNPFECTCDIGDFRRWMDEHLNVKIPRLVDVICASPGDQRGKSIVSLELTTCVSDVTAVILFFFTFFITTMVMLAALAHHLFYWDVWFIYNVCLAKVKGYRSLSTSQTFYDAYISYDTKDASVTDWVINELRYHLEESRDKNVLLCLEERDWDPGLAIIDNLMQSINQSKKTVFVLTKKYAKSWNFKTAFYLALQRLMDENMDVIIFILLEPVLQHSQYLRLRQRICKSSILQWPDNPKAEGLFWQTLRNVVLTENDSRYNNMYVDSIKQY
The assay is described as follows: TLR8 inhibition reporter assay (HEK-Blue cells, SEAP reporter, R848 stimulation). Particulars: HEK-Blue cells overexpressing human TLR8, SEAP reporter, R848 15.9 μM. An outline of the steps:
as §1

In the case of `Cc1cc(-c2[nH]nc(C(=O)NC[C@@H]3CCCN3)c2C(C)C)cn2ncnc12` [Example 51], the IC50 – broadly, the concentration that inhibits the measured activity by half – on human TLR9 came to 8.8 µM; at human TLR7, 0.00159 µM; against human TLR8, 0.00103 µM.

For the compound `Cc1cc(-c2[nH]nc(C(=O)N[C@@H]3CCCNC3)c2C(C)C)cn2ncnc12` [Example 52], the IC50 at human TLR9 was determined as 18 µM; against human TLR7, 0.0029 µM; on human TLR8 it was 0.00422 µM.

Turning to `Cc1cc(-c2[nH]nc(C(=O)N3CC[C@H](N)C3)c2C(C)C)cn2ncnc12` [Example 53], the values for the IC50 on human TLR9, on human TLR7 and on human TLR8 were 5.07 µM, 0.00094 µM and 0.00079 µM, respectively.

Regarding `Cc1cc(-c2[nH]nc(C(=O)N[C@H]3CCCNC3)c2C(C)C)cn2ncnc12` [Example 54], the IC50 amounted to 6.67 µM at human TLR9, 0.0011 µM against human TLR7 and 0.00374 µM at human TLR8.

In the case of `Cc1cc(-c2[nH]nc(C(=O)N3CCC(N)CC3)c2C(C)C)cn2ncnc12` [Example 55], the half-inhibitory concentration (IC50) is more than 50 µM against human TLR9, 0.00299 µM against human TLR7 and 0.00115 µM against human TLR8.

On to `Cc1cc(-c2[nH]nc(C(=O)N3CCNCC3)c2C(C)C)cn2ncnc12` [Example 57], for which the IC50 on human TLR9 stood at 23.1 µM; on human TLR7 it was 0.00424 µM; on human TLR8, 0.00134 µM.

With `Cc1cc(-c2[nH]nc(C(=O)NC3CNC3)c2C(C)C)cn2ncnc12` [Example 58], the IC50 against human TLR9 was 32.8 µM; at human TLR7, 0.00301 µM; at human TLR8, 0.00143 µM.

Regarding `Cc1cc(-c2[nH]nc(C(=O)N3CC4CNCC4C3)c2C(C)C)cn2ncnc12` (stereo not drawn) [Example 59], the IC50 at human TLR9 is more than 50 µM; against human TLR7 it was 0.00583 µM; on human TLR8, 0.0472 µM.

With `COc1cc(-c2[nH]nc(C(=O)NC3CCNCC3)c2C(C)C)cn2ncnc12` [Example 60], the IC50 at human TLR9 was more than 50 µM; against human TLR7, 0.0366 µM; against human TLR8 it was 0.0279 µM.

With `Cc1cc(-c2[nH]nc(C(=O)N3CCC(CN)CC3)c2C(C)C)cn2ncnc12` [Example 61], the IC50 is more than 50 µM on human TLR9, 0.0227 µM on human TLR7 and 0.00533 µM on human TLR8.

Regarding `COc1cc(-c2[nH]nc(C(=O)NCC3CCNCC3)c2C(C)C)cn2ncnc12` [Example 62], the IC50 against human TLR9 was more than 50 µM; on human TLR7 it was 0.0886 µM; against human TLR8 it was 0.0223 µM.

On to `Cc1cc(-c2[nH]nc(C(=O)N[C@H]3CC[C@@H](N)CC3)c2C(C)C)cn2ncnc12` [Example 63], for which the IC50 is more than 50 µM at human TLR9, 0.0248 µM on human TLR7 and 0.0146 µM against human TLR8.

Take `Cc1cc(-c2[nH]nc(C(=O)NC3CCCNC3)c2C(C)C)cn2ncnc12` (stereo not drawn) [Example 66]: the IC50 is 5.71 µM against human TLR9, 0.00359 µM against human TLR7 and 0.0169 µM at human TLR8.

For the compound `Cc1cc(-c2[nH]nc(C(=O)NC3CCCNC3)c2C(C)C)cn2ncnc12` (stereo not drawn) [Example 67], the values for the IC50 against human TLR9, against human TLR7 and on human TLR8 were 2.25 µM, 0.0126 µM and 0.0129 µM, respectively.

With `Cc1cc(-c2[nH]nc(C(=O)NC3CCN(CCC(F)(F)F)CC3)c2C(C)C)cn2ncnc12` [Example 69, 4-isopropyl-5-(8-methyl-[1,2,4]triazolo[1,5-a]pyridin-6-yl)-N-(1-(3,3,3-trifluoropropyl)piperidin-4-yl)-1H-pyrazole-3-carboxamide], the IC50 turned out to be 6.32 µM against human TLR9, 0.00417 µM at human TLR7 and 0.0356 µM against human TLR8.

For the compound `Cc1cc(-c2[nH]nc(C(=O)NC3CCN(C4COC4)CC3)c2C(C)C)cn2ncnc12` [Example 70], the IC50 at human TLR9 turned out to be 6.61 µM; against human TLR7 it was 0.00058 µM; at human TLR8 it was 0.00146 µM.

As for `Cc1cc(-c2[nH]nc(C(=O)NC3CCN(CCCC(F)(F)F)CC3)c2C(C)C)cn2ncnc12` [Example 71], the values for the IC50 at human TLR9, against human TLR7 and against human TLR8 were 5.81 µM, 0.00692 µM and 0.019 µM, respectively.

As for `Cc1cc(-c2[nH]nc(C(=O)NC3CCN(CC4CCOC4)CC3)c2C(C)C)cn2ncnc12` (stereo not drawn) [Example 72], the IC50 worked out at 7.22 µM on human TLR9, 0.00123 µM against human TLR7 and 0.00475 µM at human TLR8.

The record behind these values is patent publication US20230117470A1, “SUBSTITUTED PYRAZOLE COMPOUNDS AS TOLL RECEPTOR INHIBITORS” (BRISTOL-MYERS SQUIBB COMPANY, priority 2019, published 2023).
